Reference: patent publication US7052909B1, “Method for activating NKT cells using PIMs” (priority 1999, dated 2006)

How the values were obtained:
C57BL/6 mice = test: Formation of lesions of the granulomatous type after subcutaneous injection in mice; format: in vivo, mouse; conditions: s.c., adsorbed onto Alu-Gel-S
NKT cells = test: NKT-cell recruitment at the site of injection, Vα14-Jα281 mRNA by RT-PCR and Immunoscope; format: in vivo, mouse; conditions: C57BL/6 mice, s.c., adsorbed on Alu-Gel-S, day 7, RT-PCR, compared with Alu-Gel-S alone

SMILES: CC(=O)N[C@H]1C(O)O[C@H](CO)[C@@H](O)[C@@H]1O[C@H](C)C(=O)N[C@@H](C)C(=O)N[C@H](CCC(=O)O)C(N)=O (mixture of isomers) [MDP, muramyl-dipeptide]
- cell infiltrate at site of injection (C57BL/6 mice): produced a cellular infiltrate
- activity of NKT-cell recruitment (Vα14-Jα281 mRNA) (NKT cells): without increasing the Vα14-Jα281 mRNA
